Among the test systems are A549; SK-MEL-28; COLO 205; TK-10; MOLT-4; SNB-75; NCI/ADR-RES; RPMI-8226; HCC 2998; MDA-MB-231; SNB-19; A498; OVCAR-4; Hs-578T; SK-OV-3; Malme-3M; NCI-H460; HCT-116; UACC-62; SF-268.
What all share (experiment): growth of human tumour cells (NCI), 48 h

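48-hour exposure; five concentrations; linearly interpolated endpoints. GI50 = concentration required for 50% inhibition of growth.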 Active and inactive are the calls of the source. No stated cut-off is given here; in the data, active = GI50 up to about 1.1 µM and inactive = higher.

Consider `CC(N/N=C(\S)N1CCCCCC1)c1cccnn1` (stereo not given), for which the GI50 was 0.301 µM (active) in the test on A549; 0.482 µM (active) in the test with SK-MEL-28; 0.146 µM (active) with COLO 205; 0.706 µM (active) in the test with TK-10; 0.111 µM (active) in the test on MOLT-4; 1.75 µM (inactive) in the test with SNB-75. Moreover, the GI50 with NCI/ADR-RES is 0.409 µM (active); in the test with RPMI-8226, 0.155 µM (active); in the test on HCC 2998, 2.45 µM (inactive); with MDA-MB-231, 0.553 µM (active); in the test on SNB-19 it was 0.381 µM (active); with A498, 0.764 µM (active). The GI50 in the test on OVCAR-4 is 0.348 µM (active); with Hs-578T, 13.2 µM (inactive); in the test with SK-OV-3 it was 0.409 µM (active); with Malme-3M, 0.192 µM (active); in the test on NCI-H460 it was 0.274 µM (active); with HCT-116, 0.325 µM (active). Also, the GI50 was 0.264 µM (active) in the test with UACC-62 and 0.337 µM (active) with SF-268.
For `N#CC(C#N)=Cc1c(O)ccc2ccccc12`, the GI50 in the test on A549 was 17.1 µM (inactive); in the test with SK-MEL-28, 14.5 µM (inactive); in the test on COLO 205 it was 15.2 µM (inactive); with TK-10, 18.1 µM (inactive); in the test on MOLT-4, 2.18 µM (inactive); in the test with SNB-75, 3.3 µM (inactive). Moreover, the GI50 with NCI/ADR-RES is 17.3 µM (inactive); with RPMI-8226, 11.9 µM (inactive); in the test on HCC 2998, 16 µM (inactive); with MDA-MB-231, 13.2 µM (inactive); in the test on SNB-19, 15.4 µM (inactive); in the test with A498, 16 µM (inactive). The GI50 with OVCAR-4 is 18.3 µM (inactive); in the test on Hs-578T, 17.3 µM (inactive); with SK-OV-3 it was 15.8 µM (inactive); with Malme-3M it was 17 µM (inactive); with NCI-H460 it was 14.7 µM (inactive); with HCT-116, 11.4 µM (inactive). In addition, the GI50 is 12.9 µM (inactive) in the test on UACC-62 and 11.9 µM (inactive) in the test with SF-268.
For `O=[N+]([O-])C(=C1NCCN1)/C(Cl)=C(\Cl)Br`, the GI50 was > 100 µM (inactive) in the test on A549; 32 µM (inactive) with SK-MEL-28; 19.6 µM (inactive) in the test with COLO 205; > 72.4 µM (inactive) in the test on TK-10; 22.3 µM (inactive) in the test on MOLT-4; 27.2 µM (inactive) in the test with SNB-75. For the same compound, the GI50 with NCI/ADR-RES is > 63.1 µM (inactive); in the test with RPMI-8226, 22.4 µM (inactive); with HCC 2998 it was 60 µM (inactive); in the test with MDA-MB-231 it was > 60.3 µM (inactive); in the test with SNB-19, > 100 µM (inactive); with A498 it was > 44.9 µM (inactive). In addition, the GI50 in the test on OVCAR-4 is 46.5 µM (inactive); in the test with Hs-578T it was > 100 µM (inactive); in the test on SK-OV-3, > 100 µM (inactive); in the test on Malme-3M, 36.9 µM (inactive); with NCI-H460, 51.6 µM (inactive); with HCT-116 it was 28.8 µM (inactive). Further, the GI50 in the test on UACC-62 is 43.1 µM (inactive); with SF-268, 35.2 µM (inactive).
